# Data: patent US8748417B2, “Amino-pyrrolidine-azetidine diamides as monoacylglycerol lipase inhibitors” (Janssen Pharmaceutica, NV, priority 2010, dated 2014)
# How the values were obtained:
# [1] = molecular target: T1, purified wild type MGL (wt-MGLL 6H-11-313) (Homo sapiens, UniProt Q99685); test: MGL enzyme activity assay (4MU-B cleavage), wild type MGL; assay type: biochemical; conditions: wild type MGL 5 nM, 4MU-B 10 μM, 37° C.; read-out: MGL wild type inh IC50
# T1 construct: purified wild type MGL (wt-MGLL 6H-11-313)
# T1 sequence (Q99685 1-303): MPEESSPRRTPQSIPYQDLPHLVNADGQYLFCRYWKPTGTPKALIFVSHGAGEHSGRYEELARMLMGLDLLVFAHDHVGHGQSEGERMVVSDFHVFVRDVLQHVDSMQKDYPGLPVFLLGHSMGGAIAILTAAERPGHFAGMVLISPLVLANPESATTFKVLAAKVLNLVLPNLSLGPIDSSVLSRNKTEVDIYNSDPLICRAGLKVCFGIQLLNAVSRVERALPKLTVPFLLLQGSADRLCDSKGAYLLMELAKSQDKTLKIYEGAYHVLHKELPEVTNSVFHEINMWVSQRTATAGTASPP
# Outline: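 Enzyme in 20 mM PIPES pH 7.0, 150 mM NaCl, 0.001% Tween 20 with 4MU-B at 10 μM final and MGL at 5 nM final; compounds 17 to 0.0003 μM final, enzyme added last. Fluorescence (ex 335/em 440 nm) followed at 37° C for 5 min; IC50 from fit of fractional activity versus inhibitor concentration.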
# [2] = system: MGL (rat brain homogenate); test: 2-AG accumulation assay in rat brain homogenate; assay type: biochemical; conditions: compound 1 μM, percent of vehicle 2-AG accumulation
# Description: After a 15-min incubation time at 37° C., CaCl2 (final concentration=10 mM) was added and then incubated for 15 min at 37° C. in a total volume of 5 mL. The reactions were stopped with 6 mL organic solvent extraction solution of 2:1 chloroform/methanol. Accumulated 2-AG in the organic phase was measured by a HPLC/MS method, according to the following equation: percent vehicle=(2-AG accumulation in the presence of compound/2-AG accumulation in vehicle)×100.
Compound,IC50 [1] [nM],Rat Brain 2AG % VehCntrl (%) @1 μM [2] [%]
"Cn1cc(-c2ccc(F)cc2)c2ccc(C(=O)N3CC(N[C@H]4CCN(C(=O)c5cscn5)C4)C3)cc21 [Cpd 193, (3S)-N-(1-{[3-(4-Fluorophenyl)-1-methyl-1H-indol-6-yl]carbonyl}azetidin-3-yl)-1-(1,3-thiazol-4-ylcarbonyl)pyrrolidin-3-amine]",19,219
"O=C(c1ccc2c(-c3ccccc3)c[nH]c2c1)N1CC(N[C@H]2CCN(C(=O)c3cscn3)C2)C1 [Cpd 188, (3S)-N-{1-[(3-Phenyl-1H-indol-6-yl)carbonyl]azetidin-3-yl}-1-(1,3-thiazol-4-ylcarbonyl)pyrrolidin-3-amine]",74.9,140
"Cn1cc(-c2cccc(C(F)(F)F)c2)c2ccc(C(=O)N3CC(N[C@H]4CCN(C(=O)c5cscn5)C4)C3)cc21 [Cpd 164, (3S)-N-[1-({1-Methyl-3-[3-(trifluoromethyl)phenyl]-1H-indol-6-yl}carbonyl)azetidin-3-yl]-1-(1,3-thiazol-4-ylcarbonyl)pyrrolidin-3-amine]",25.1,458
"O=C(c1ccc2c(ccn2-c2ccc(F)cc2)c1)N1CC(N[C@H]2CCN(C(=O)c3cscn3)C2)C1 [Cpd 160, (3S)-N-(1-{[1-(4-Fluorophenyl)-1H-indol-5-yl]carbonyl}azetidin-3-yl)-1-(1,3-thiazol-4-ylcarbonyl)pyrrolidin-3-amine]",12.4,338
"O=C(c1nccs1)N1CC[C@H](NC2CN(C(=O)c3sc4cc(-c5ccc(C(F)(F)F)cc5)ccc4c3F)C2)C1 [Cpd 177, (3S)-N-[1-({3-Fluoro-6-[4-(trifluoromethyl)phenyl]-1-benzothiophen-2-yl}carbonyl)azetidin-3-yl]-1-(1,3-thiazol-2-ylcarbonyl)pyrrolidin-3-amine]",16,766
"O=C(c1cscn1)N1CC[C@H](NC2CN(C(=O)c3sc4ccc(-c5ccccc5)cc4c3F)C2)C1 [Cpd 172, (3S)-N-{1-[(3-Fluoro-5-phenyl-1-benzothiophen-2-yl)carbonyl]azetidin-3-yl}-1-(1,3-thiazol-4-ylcarbonyl)pyrrolidin-3-amine]",< 5,532
"O=C(c1nccs1)N1CC[C@H](NC2CN(C(=O)c3sc4cc(Cl)ccc4c3C(F)(F)F)C2)C1 [Cpd 183, (3S)-N-(1-{[6-Chloro-3-(trifluoromethyl)-1-benzothiophen-2-yl]carbonyl}azetidin-3-yl)-1-(1,3-thiazol-2-ylcarbonyl)pyrrolidin-3-amine]",23.1,316
"Cc1ccc2c(C(F)(F)F)c(C(=O)N3CC(N[C@H]4CCN(C(=O)c5nccs5)C4)C3)sc2c1 [Cpd 186, (3S)-N-(1-{[6-Methyl-3-(trifluoromethyl)-1-benzothiophen-2-yl]carbonyl}azetidin-3-yl)-1-(1,3-thiazol-2-ylcarbonyl)pyrrolidin-3-amine]",90.5,563
"O=C(c1cscn1)N1CC[C@H](NC2CN(C(=O)c3cc4ccc(-c5ccc(C(F)(F)F)cc5)cc4s3)C2)C1 [Cpd 128, (3S)-1-(1,3-Thiazol-4-ylcarbonyl)-N-[1-({6-[4-(trifluoromethyl)phenyl]-1-benzothiophen-2-yl}carbonyl)azetidin-3-yl]pyrrolidin-3-amine]",5,491
"Cn1cc(-c2ccc(C(F)(F)F)cc2)c2ccc(C(=O)N3CC(N[C@H]4CCN(C(=O)c5nccs5)C4)C3)cc21 [Cpd 163, (3S)-N-[1-({1-Methyl-3-[4-(trifluoromethyl)phenyl]-1H-indol-6-yl}carbonyl)azetidin-3-yl]-1-(1,3-thiazol-2-ylcarbonyl)pyrrolidin-3-amine]",10.7,274
"Cc1c(C(=O)N2CC(N[C@H]3CCN(C(=O)c4ccccc4)C3)C2)sc2ccc(-c3ccc(F)cc3)cc12 [Cpd 94, (3S)-N-(1-{[5-(4-Fluorophenyl)-3-methyl-1-benzothiophen-2-yl]carbonyl}azetidin-3-yl)-1-(phenylcarbonyl)pyrrolidin-3-amine]",< 5,445
"Cc1c(C(=O)N2CC(N[C@H]3CCN(C(=O)c4nccs4)C3)C2)sc2ccc(Cl)cc12 [Cpd 84, (3S)-N-{1-[(5-Chloro-3-methyl-1-benzothiophen-2-yl)carbonyl]azetidin-3-yl}-1-(1,3-thiazol-2-ylcarbonyl)pyrrolidin-3-amine]",< 5,433
"O=C(c1cscn1)N1CC[C@H](NC2CN(C(=O)c3cc4cc(-c5cccc(C(F)(F)F)c5)ccc4s3)C2)C1 [Cpd 130, (3S)-1-(1,3-Thiazol-4-ylcarbonyl)-N-[1-({5-[3-(trifluoromethyl)phenyl]-1-benzothiophen-2-yl}carbonyl)azetidin-3-yl]pyrrolidin-3-amine]",< 5,747
"O=C(c1ccc2c(ccn2-c2ccc(C(F)(F)F)cc2)c1)N1CC(N[C@H]2CCN(C(=O)c3nccs3)C2)C1 [Cpd 118, (3S)-1-(1,3-Thiazol-2-ylcarbonyl)-N-[1-({1-[4-(trifluoromethyl)phenyl]-1H-indol-5-yl}carbonyl)azetidin-3-yl]pyrrolidin-3-amine]",< 5,626
"O=C(c1cscn1)N1CC[C@H](NC2CN(C(=O)c3sc4cc(-c5ccccc5)ccc4c3Cl)C2)C1 [Cpd 147, (3S)-N-{1-[(3-Chloro-6-phenyl-1-benzothiophen-2-yl)carbonyl]azetidin-3-yl}-1-(1,3-thiazol-4-ylcarbonyl)pyrrolidin-3-amine]",< 5,506
"Cn1nc(-c2ccccc2)c2cc(C(=O)N3CC(N[C@H]4CCN(C(=O)c5nccs5)C4)C3)ccc21 [Cpd 195, (3S)-N-{1-[(1-Methyl-3-phenyl-1H-indazol-5-yl)carbonyl]azetidin-3-yl}-1-(1,3-thiazol-2-ylcarbonyl)pyrrolidin-3-amine]",22.4,472
"O=C(c1ccc2c(ccn2-c2ncccn2)c1)N1CC(N[C@H]2CCN(C(=O)c3nccs3)C2)C1 [Cpd 119, (3S)-N-{1-[(1-Pyrimidin-2-yl-1H-indol-5-yl)carbonyl]azetidin-3-yl}-1-(1,3-thiazol-2-ylcarbonyl)pyrrolidin-3-amine]",48.8,255
"O=C(c1ccc(-c2ccc(C(F)(F)F)cc2)cc1)N1CC(N[C@H]2CCN(C(=O)c3nccs3)C2)C1 [Cpd 115, (3S)-1-(1,3-Thiazol-2-ylcarbonyl)-N-(1-{[4′-(trifluoromethyl)biphenyl-4-yl]carbonyl}azetidin-3-yl)pyrrolidin-3-amine]",10,310
"O=C(c1ccccc1)N1CC[C@H](NC2CN(C(=O)c3ccc(-c4cccc(C(F)(F)F)c4)cc3F)C2)C1 [Cpd 152, (3S)-N-(1-{[3-Fluoro-3′-(trifluoromethyl)biphenyl-4-yl]carbonyl}azetidin-3-yl)-1-(phenylcarbonyl)pyrrolidin-3-amine]",35.2,404
